Source: ChEMBL document CHEMBL1833945, “Synthesis and anticonvulsant activity of new N-Mannich bases derived from 5-cyclopropyl-5-phenyl- and 5-cyclopropyl-5-(4-chlorophenyl)-imidazolidine-2,4-diones” (Bioorg Med Chem, 2011)
The source made the active and inactive calls. The calls are words filed in the database; no cut-off is given here.

Tests used:
[1] = test system: Rattus norvegicus; assay: Neurotoxicity in Sprague-Dawley albino rat assessed as motor impairment at 30 mg/kg, po after 4 hrs by rotarod test; format: toxicity, organism-based; design: dose 30 mg/kg, route oral; details: in vivo
[2] = test system: Rattus norvegicus; assay: Neurotoxicity in Sprague-Dawley albino rat assessed as motor impairment at 30 mg/kg, po after 2 hrs by rotarod test; format: toxicity, organism-based; design: dose 30 mg/kg, route oral; details: in vivo
[3] = test system: Rattus norvegicus; assay: Neurotoxicity in Sprague-Dawley albino rat assessed as motor impairment at 30 mg/kg, po after 1 hrs by rotarod test; format: toxicity, organism-based; design: dose 30 mg/kg, route oral; details: in vivo
[4] = test system: Rattus norvegicus; assay: Neurotoxicity in Sprague-Dawley albino rat assessed as motor impairment at 30 mg/kg, po after 0.5 hrs by rotarod test; format: toxicity, organism-based; design: dose 30 mg/kg, route oral; details: in vivo
[5] = test system: Rattus norvegicus; assay: Neurotoxicity in Sprague-Dawley albino rat assessed as motor impairment at 30 mg/kg, po after 0.25 hrs by rotarod test; format: toxicity, organism-based; design: dose 30 mg/kg, route oral; details: in vivo
[6] = test system: Mus musculus; assay: Neurotoxicity in CF1 albino mouse assessed as impair in motor coordination at 300 mg/kg, ip after 4 hrs by rotarod test; format: toxicity, organism-based; design: dose 300 mg/kg, route intraperitoneal; details: in vivo
[7] = test system: Mus musculus; assay: Neurotoxicity in CF1 albino mouse assessed as impair in motor coordination at 300 mg/kg, ip after 0.5 hrs by rotarod test; format: toxicity, organism-based; design: dose 300 mg/kg, route intraperitoneal; details: in vivo
[8] = species on record: Rattus norvegicus; assay: Protective index, ratio of TD50 for neurotoxicity in Sprague-Dawley albino rat to ED50 for inhibition of maximal electroshock-induced seizures in Sprague-Dawley albino rat; format: functional
[9] = Neurotoxicity in oral dosed Sprague-Dawley albino rat assessed as motor impairment by rotarod test; format: toxicity, organism-based; details: in vivo
[10] = test system: Rattus norvegicus; assay: Anticonvulsant activity in po dosed Sprague-Dawley albino rat assessed as protection against subcutaneous pentylenetetrazole-induced seizures; format: functional
[11] = test system: Rattus norvegicus; assay: Anticonvulsant activity in po dosed Sprague-Dawley albino rat assessed as protection against maximal electroshock-induced seizures; format: functional
[12] = test system: Rattus norvegicus; assay: Anticonvulsant activity in po dosed Sprague-Dawley albino rat assessed as time to peak effect; format: functional
[13] = test system: Mus musculus; assay: Anticonvulsant activity in ip dosed CF1 albino mouse assessed as protection against maximal electroshock-induced seizures after 4 hrs; format: functional; details: read-out: MED
[14] = Lipophilicity, log P of compound; format: physicochemical; details: octanol/water
[15] = test system: Mus musculus; assay: Anticonvulsant activity in ip dosed CF1 albino mouse assessed as protection against maximal electroshock-induced seizures after 0.5 hrs; format: functional; details: read-out: MED
[16] = test system: Mus musculus; assay: Toxicity in subcutaneous pentylenetetrazole-induced CF1 albino mouse assessed as myoclonic jerks at 300 mg/kg, ip after 4 hrs; format: organism-based; design: dose 300 mg/kg; details: in vivo, sc
[17] = test system: Mus musculus; assay: Neurotoxicity in CF1 albino mouse assessed as loss of rotard grasping at 300 mg/kg, ip after 0.5 hrs by rotarod test; format: toxicity, organism-based; design: dose 300 mg/kg, route intraperitoneal; details: in vivo
[18] = test system: Mus musculus; assay: Anticonvulsant activity in ip dosed CF1 albino mouse assessed as protection against subcutaneous pentylenetetrazole-induced seizures after 4 hrs; format: functional; details: read-out: MED
[19] = test system: Mus musculus; assay: Anticonvulsant activity in ip dosed CF1 albino mouse assessed as protection against subcutaneous pentylenetetrazole-induced seizures after 0.5 hrs; format: functional; details: read-out: MED
[20] = test system: Mus musculus; assay: Neurotoxicity in CF1 albino mouse assessed as minimum dose causing loss of righting reflex at 300 mg/kg, ip after 4 hrs by rotarod test; format: toxicity, organism-based; design: dose 300 mg/kg, route intraperitoneal; details: in vivo
[21] = test system: Mus musculus; assay: Anticonvulsant activity in CF1 albino mouse assessed as protection against subcutaneous pentylenetetrazole-induced seizures at 300 mg/kg, […] after 4 hrs; format: functional, organism-based; design: dose 300 mg/kg
[22] = test system: Mus musculus; assay: Anticonvulsant activity in CF1 albino mouse assessed as protection against maximal electroshock-induced seizures at 300 mg/kg, ip after 0.5 hrs; format: functional, organism-based; design: dose 300 mg/kg
[23] = test system: Rattus norvegicus; assay: Anticonvulsant activity in Sprague-Dawley albino rat assessed as protection against maximal electroshock-induced seizures at 30 mg/kg, po after 0.5 hrs; format: functional, organism-based; design: dose 30 mg/kg
[24] = test system: Rattus norvegicus; assay: Anticonvulsant activity in Sprague-Dawley albino rat assessed as protection against maximal electroshock-induced seizures at 30 mg/kg, po after 0.25 hrs; format: functional, organism-based; design: dose 30 mg/kg
[25] = test system: Mus musculus; assay: Toxicity in subcutaneous pentylenetetrazole-induced CF1 albino mouse assessed as myoclonic jerks at 100 mg/kg, ip after 0.5 hrs; format: organism-based; design: dose 100 mg/kg; details: in vivo, sc
[26] = test system: Mus musculus; assay: Neurotoxicity in ip dosed CF1 albino mouse assessed as minimum dose required to cause impair in motor coordination after 4 hrs by rotarod test; format: toxicity, organism-based; details: in vivo
[27] = test system: Mus musculus; assay: Neurotoxicity in ip dosed CF1 albino mouse assessed as minimum dose required to cause impair in motor coordination after 0.5 hrs by rotarod test; format: toxicity, organism-based; details: in vivo
[28] = test system: Rattus norvegicus; assay: Anticonvulsant activity in Sprague-Dawley albino rat assessed as protection against subcutaneous pentylenetetrazole-induced seizures at 50 mg/kg, po after 0.25 hrs; format: functional, organism-based; design: dose 50 mg/kg
[29] = test system: Mus musculus; assay: Anticonvulsant activity in CF1 albino mouse assessed as protection against electrically-induced seizure at 100 mg/kg, ip after 0.25 hrs by 6Hz psychomotor seizure test; format: functional, organism-based; design: dose 100 mg/kg
[30] = test system: Rattus norvegicus; assay: Neurotoxicity in Sprague-Dawley albino rat assessed as motor impairment at 50 mg/kg, po after 4 hrs by rotarod test; format: toxicity, organism-based; design: dose 50 mg/kg, route oral; details: in vivo
[31] = test system: Rattus norvegicus; assay: Neurotoxicity in Sprague-Dawley albino rat assessed as motor impairment at 50 mg/kg, po after 2 hrs by rotarod test; format: toxicity, organism-based; design: dose 50 mg/kg, route oral; details: in vivo
[32] = test system: Rattus norvegicus; assay: Neurotoxicity in Sprague-Dawley albino rat assessed as motor impairment at 50 mg/kg, po after 1 hrs by rotarod test; format: toxicity, organism-based; design: dose 50 mg/kg, route oral; details: in vivo
[33] = test system: Rattus norvegicus; assay: Neurotoxicity in Sprague-Dawley albino rat assessed as motor impairment at 50 mg/kg, po after 0.5 hrs by rotarod test; format: toxicity, organism-based; design: dose 50 mg/kg, route oral; details: in vivo
[34] = test system: Rattus norvegicus; assay: Neurotoxicity in Sprague-Dawley albino rat assessed as motor impairment at 50 mg/kg, po after 0.25 hrs by rotarod test; format: toxicity, organism-based; design: dose 50 mg/kg, route oral; details: in vivo
[35] = test system: Mus musculus; assay: Neurotoxicity in CF1 albino mouse assessed as loss of rotard grasping at 300 mg/kg, ip after 4 hrs by rotarod test; format: toxicity, organism-based; design: dose 300 mg/kg, route intraperitoneal; details: in vivo

SMILES	logP [14]	Activity [1]	Activity [2]	Activity [3]	Activity [4]	Activity [5]	Activity [6]	Activity [7]	minimal effective dose [13]	minimal effective dose [15]	Activity [17]	Activity [21]	Activity [22]	also measured
CC(c1ccccc1)N1CCN(CN2C(=O)NC(c3ccccc3)(C3CC3)C2=O)CC1 (stereo not drawn)	3.19	Non-toxic	Non-toxic	Non-toxic	Non-toxic	Non-toxic	Non-toxic	Non-toxic	100 mg/kg	300 mg/kg				PI [8]: >18.3; TD50 [9]: > 200 mg/kg; ED50 [10]: < 100 mg/kg; ED50 [11]: 10.9 mg/kg; Time [12]: 2 h; Activity [16]: Toxic
O=C1NC(c2ccccc2)(C2CC2)C(=O)N1CN1CCN(C/C=C/c2ccccc2)CC1 (stereo not drawn)	3.3								100 mg/kg	100 mg/kg	Toxic			minimal effective dose [18]: 300 mg/kg; minimal effective dose [19]: 100 mg/kg; Activity [20]: Toxic
O=C1NC(c2ccc(Cl)cc2)(C2CC2)C(=O)N1CN1CCN(c2ccccc2F)CC1 (stereo not drawn)							Non-toxic	Non-toxic	300 mg/kg			inactive	inactive	
O=C(c1ccccc1)N1CCN(CN2C(=O)NC(c3ccccc3)(C3CC3)C2=O)CC1 (stereo not drawn)	2.17	Non-toxic	Non-toxic	Non-toxic	Non-toxic	Non-toxic	Non-toxic	Non-toxic	100 mg/kg	100 mg/kg				Activity [23]: inactive; Activity [24]: inactive; Activity [25]: Toxic; Activity [16]: Toxic
O=C1NC(=O)C(c2ccccc2)(c2ccccc2)N1 [PHENYTOIN]		Non-toxic	Non-toxic	Non-toxic	Non-toxic	Non-toxic			30 mg/kg	30 mg/kg		inactive		Activity [23]: Active; MTC [26]: 100 mg/kg; PI [8]: >35.58; TD50 [9]: > 1000 mg/kg; ED50 [10]: > 500 mg/kg; Time [12]: 1 h; MTC [27]: 100 mg/kg
O=C1NC(c2ccc(Cl)cc2)(C2CC2)C(=O)N1CN1CCN(c2ccccc2)CC1 (stereo not drawn)								Non-toxic	100 mg/kg			inactive	inactive	Activity [35]: Toxic

Second part, led by results:

logP [14]	SMILES	Activity [1]	Activity [2]	Activity [3]	Activity [4]	Activity [5]	Activity [6]	Activity [7]	minimal effective dose [13]	minimal effective dose [15]	Activity [17]	Activity [21]	Activity [22]	also measured
3.9	CC(c1ccccc1)N1CCN(CN2C(=O)NC(c3ccc(Cl)cc3)(C3CC3)C2=O)CC1 (stereo not drawn)						Non-toxic		300 mg/kg	300 mg/kg	Toxic	inactive		
2	O=C1NC(c2ccc(Cl)cc2)(C2CC2)C(=O)N1CN1CCOCC1 (stereo not drawn)								100 mg/kg	100 mg/kg	Toxic			Activity [28]: inactive; Activity [29]: inactive; Activity [30]: Non-toxic; Activity [31]: Non-toxic; Activity [32]: Non-toxic; Activity [33]: Non-toxic; Activity [34]: Non-toxic; minimal effective dose [18]: 300 mg/kg; minimal effective dose [19]: 100 mg/kg; Activity [20]: Toxic
3.71	O=C1NC(c2ccc(Cl)cc2)(C2CC2)C(=O)N1CN1CCc2ccccc2C1 (stereo not drawn)						Non-toxic	Non-toxic	300 mg/kg			inactive	inactive	
